The values below come from patent US10344060B2 (priority 2013, dated 2019).

Experiment in all cases: cell-based
One experiment concerns the target hNav1.7 (Homo sapiens, UniProt Q15858). The note with it: read-out: IC50 (μM) Nav1.7.
A further experiment concerns the target hNav1.5 (Homo sapiens, UniProt Q14524). The following applies: IonWorks Quattro; Table 6; read-out: IC50 (μM) Nav1.5. For orientation: In patch-clamp work, channel activity is measured electrically.
The next experiment addresses hNav1.4 (Homo sapiens, UniProt P35499). Format: cell-based. The following applies: Table 6; for IC50: IonWorks Quattro, read-out: IC50 (μM) Nav1.4; for Nav1.4/Nav1.7: ratio of IonWorks Quattro IC50 values.
For another experiment, the target named is hNav1.3 (Homo sapiens, UniProt Q9NY46). The following applies: IonWorks Quattro; Table 6; read-out: IC50 (μM) Nav1.3.
Chain of hNav1.3 (Q9NY46 whole entry): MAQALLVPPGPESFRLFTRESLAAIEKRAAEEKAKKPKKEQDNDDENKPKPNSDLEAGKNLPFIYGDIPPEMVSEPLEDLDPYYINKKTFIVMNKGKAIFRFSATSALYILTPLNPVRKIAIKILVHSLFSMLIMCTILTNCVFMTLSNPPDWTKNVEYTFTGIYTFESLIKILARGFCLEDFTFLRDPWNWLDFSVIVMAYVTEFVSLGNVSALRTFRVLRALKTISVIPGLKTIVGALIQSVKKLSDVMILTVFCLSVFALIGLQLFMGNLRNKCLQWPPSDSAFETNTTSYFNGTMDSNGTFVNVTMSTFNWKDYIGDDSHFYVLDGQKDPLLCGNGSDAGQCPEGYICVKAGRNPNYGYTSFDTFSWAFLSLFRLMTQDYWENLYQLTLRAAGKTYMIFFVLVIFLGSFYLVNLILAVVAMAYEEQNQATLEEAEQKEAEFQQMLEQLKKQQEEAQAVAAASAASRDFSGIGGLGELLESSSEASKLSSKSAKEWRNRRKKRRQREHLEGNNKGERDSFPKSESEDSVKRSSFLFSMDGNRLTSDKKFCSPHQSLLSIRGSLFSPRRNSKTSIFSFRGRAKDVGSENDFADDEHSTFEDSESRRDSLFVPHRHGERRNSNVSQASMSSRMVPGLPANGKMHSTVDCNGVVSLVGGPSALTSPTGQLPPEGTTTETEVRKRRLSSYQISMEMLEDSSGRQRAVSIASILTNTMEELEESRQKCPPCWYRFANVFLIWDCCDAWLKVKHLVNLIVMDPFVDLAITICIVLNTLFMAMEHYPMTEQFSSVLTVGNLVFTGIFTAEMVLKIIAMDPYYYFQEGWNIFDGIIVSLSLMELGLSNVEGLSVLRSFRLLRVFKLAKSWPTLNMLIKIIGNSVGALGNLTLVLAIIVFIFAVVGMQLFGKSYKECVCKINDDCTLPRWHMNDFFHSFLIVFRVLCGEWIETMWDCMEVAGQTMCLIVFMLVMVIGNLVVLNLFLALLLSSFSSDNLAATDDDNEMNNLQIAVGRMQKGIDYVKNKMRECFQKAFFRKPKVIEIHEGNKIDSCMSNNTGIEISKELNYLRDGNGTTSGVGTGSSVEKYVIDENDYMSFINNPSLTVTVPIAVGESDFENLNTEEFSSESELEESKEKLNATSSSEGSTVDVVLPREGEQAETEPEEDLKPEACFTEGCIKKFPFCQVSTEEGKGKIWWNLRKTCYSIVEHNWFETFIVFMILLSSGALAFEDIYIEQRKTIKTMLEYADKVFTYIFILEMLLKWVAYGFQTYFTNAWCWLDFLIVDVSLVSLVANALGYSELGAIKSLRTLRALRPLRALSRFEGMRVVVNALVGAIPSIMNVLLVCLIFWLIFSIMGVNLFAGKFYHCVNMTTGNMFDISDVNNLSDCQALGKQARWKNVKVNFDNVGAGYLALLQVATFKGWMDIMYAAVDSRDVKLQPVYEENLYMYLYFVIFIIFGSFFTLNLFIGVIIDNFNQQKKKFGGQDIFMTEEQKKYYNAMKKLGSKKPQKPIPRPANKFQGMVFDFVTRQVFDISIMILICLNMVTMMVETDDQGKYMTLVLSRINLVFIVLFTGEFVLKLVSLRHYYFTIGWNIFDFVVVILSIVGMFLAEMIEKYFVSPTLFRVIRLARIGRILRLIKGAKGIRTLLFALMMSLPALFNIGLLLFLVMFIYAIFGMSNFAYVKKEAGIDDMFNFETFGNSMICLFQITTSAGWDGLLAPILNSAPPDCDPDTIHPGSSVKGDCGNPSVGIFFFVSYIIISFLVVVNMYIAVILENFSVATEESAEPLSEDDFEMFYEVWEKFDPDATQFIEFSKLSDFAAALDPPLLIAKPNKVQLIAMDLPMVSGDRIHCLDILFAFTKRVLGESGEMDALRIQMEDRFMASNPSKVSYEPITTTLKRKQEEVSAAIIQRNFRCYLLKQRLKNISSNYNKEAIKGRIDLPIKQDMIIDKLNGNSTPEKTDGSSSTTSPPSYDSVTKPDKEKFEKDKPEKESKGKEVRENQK

A value given as a limit tells only on which side of the number the result lay.

Chain of hNav1.7 (Q15858 whole entry): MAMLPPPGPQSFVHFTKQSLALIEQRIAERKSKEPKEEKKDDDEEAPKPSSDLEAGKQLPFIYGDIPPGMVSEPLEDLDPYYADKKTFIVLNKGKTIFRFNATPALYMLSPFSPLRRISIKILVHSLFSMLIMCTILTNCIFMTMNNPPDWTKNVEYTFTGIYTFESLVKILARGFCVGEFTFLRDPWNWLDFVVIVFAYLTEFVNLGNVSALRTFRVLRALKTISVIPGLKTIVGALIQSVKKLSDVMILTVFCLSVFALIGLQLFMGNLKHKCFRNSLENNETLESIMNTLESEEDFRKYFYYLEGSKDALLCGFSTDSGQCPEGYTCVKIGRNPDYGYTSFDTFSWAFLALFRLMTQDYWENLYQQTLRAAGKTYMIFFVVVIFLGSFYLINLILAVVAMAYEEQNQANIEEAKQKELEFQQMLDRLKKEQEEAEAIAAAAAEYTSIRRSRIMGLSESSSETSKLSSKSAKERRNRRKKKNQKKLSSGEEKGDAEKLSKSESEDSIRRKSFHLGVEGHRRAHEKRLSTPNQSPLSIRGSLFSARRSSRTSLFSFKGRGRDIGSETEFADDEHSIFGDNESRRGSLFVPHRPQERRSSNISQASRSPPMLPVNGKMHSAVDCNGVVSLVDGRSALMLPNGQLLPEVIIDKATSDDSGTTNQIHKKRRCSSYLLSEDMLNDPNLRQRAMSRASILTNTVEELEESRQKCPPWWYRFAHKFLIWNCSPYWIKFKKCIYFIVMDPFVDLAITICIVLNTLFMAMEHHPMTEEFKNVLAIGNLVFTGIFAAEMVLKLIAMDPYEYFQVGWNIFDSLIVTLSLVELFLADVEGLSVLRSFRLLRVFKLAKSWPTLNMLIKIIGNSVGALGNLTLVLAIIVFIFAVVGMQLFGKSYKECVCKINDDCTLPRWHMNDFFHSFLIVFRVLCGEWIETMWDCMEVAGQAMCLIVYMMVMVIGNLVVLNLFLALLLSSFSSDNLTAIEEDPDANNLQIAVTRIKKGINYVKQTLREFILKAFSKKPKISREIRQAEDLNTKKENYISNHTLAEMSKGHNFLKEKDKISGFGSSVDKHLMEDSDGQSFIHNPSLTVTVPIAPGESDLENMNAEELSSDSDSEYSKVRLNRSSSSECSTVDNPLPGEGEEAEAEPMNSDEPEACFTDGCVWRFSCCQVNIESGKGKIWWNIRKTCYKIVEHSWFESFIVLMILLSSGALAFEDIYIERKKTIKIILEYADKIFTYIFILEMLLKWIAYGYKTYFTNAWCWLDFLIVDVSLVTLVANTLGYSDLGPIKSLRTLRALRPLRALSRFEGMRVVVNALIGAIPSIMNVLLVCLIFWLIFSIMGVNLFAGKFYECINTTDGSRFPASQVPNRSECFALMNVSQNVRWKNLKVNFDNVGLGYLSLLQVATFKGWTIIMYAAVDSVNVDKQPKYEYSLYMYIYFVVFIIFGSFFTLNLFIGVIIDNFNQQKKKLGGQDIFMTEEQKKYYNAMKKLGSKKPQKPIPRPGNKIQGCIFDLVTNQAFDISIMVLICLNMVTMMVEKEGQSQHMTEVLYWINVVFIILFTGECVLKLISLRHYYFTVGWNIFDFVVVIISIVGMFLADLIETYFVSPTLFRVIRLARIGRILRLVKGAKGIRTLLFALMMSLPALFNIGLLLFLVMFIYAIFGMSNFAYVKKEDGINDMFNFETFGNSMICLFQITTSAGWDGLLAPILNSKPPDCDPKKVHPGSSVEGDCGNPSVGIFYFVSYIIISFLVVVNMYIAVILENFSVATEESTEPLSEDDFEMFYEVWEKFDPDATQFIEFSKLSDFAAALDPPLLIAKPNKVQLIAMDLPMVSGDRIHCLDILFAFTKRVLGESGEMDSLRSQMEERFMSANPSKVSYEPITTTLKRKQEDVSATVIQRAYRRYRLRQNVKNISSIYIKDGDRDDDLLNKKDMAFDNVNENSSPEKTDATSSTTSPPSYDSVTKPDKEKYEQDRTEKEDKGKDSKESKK

With `CC[C@H](C)[C@H](NC(=O)[C@@H](NC(=O)[C@H](CCCCN)NC(=O)[C@H](CCCNC(=N)N)NC(=O)[C@@H]1CSSC[C@@H]2NC(=O)[C@H](C)NC(=O)[C@H](CCCNC(=N)N)NC(=O)[C@H](CCCCN)NC(=O)[C@H](CO)NC(=O)[C@H](CC(=O)O)NC(=O)[C@@H]3CSSC[C@H](NC(=O)[C@H](CCCNC(=N)N)NC(=O)[C@H](CC(C)C)NC(=O)CNC(=O)[C@H](CCC(=O)O)NC(=O)[C@H](CSSC[C@H](NC(=O)[C@@H](N)Cc4ccc(O)cc4)C(=O)N[C@@H](CCC(N)=O)C(=O)N[C@@H](CCCCN)C(=O)N[C@@H](Cc4c[nH]c5ccccc45)C(=O)N[C@@H](CCSC)C(=O)N[C@@H](CCCCN)C(=O)N[C@@H]([C@@H](C)O)C(=O)N3)NC2=O)C(=O)N[C@@H](CCCCN)C(=O)N[C@@H](CC(C)C)C(=O)N[C@@H](Cc2c[nH]c3ccccc23)C(=O)N1)[C@@H](C)CC)C(N)=O` [compound 75], the IC50 at hNav1.7 was 0.08 µM; on hNav1.5, more than 5 µM; at hNav1.4, 0.43 µM; on hNav1.3, 0.31 µM. The Nav1.4/Nav1.7 on hNav1.4 was 5.

For the compound `CC[C@H](C)[C@H](NC(=O)[C@@H](NC(=O)[C@H](CCCCN)NC(=O)[C@H](CCCNC(=N)N)NC(=O)[C@@H]1CSSC[C@@H]2NC(=O)[C@H](C)NC(=O)[C@H](CCCNC(=N)N)NC(=O)[C@H](CCCCN)NC(=O)[C@H](CO)NC(=O)[C@H](CC(=O)O)NC(=O)[C@@H]3CSSC[C@H](NC(=O)[C@H](CCCNC(=N)N)NC(=O)[C@H](CC(C)C)NC(=O)CNC(=O)[C@H](CCC(=O)O)NC(=O)[C@H](CSSC[C@H](NC(=O)[C@@H](N)Cc4ccc(O)cc4)C(=O)N[C@@H](CCC(N)=O)C(=O)N[C@@H](CCCCN)C(=O)N[C@@H](Cc4c[nH]c5ccccc45)C(=O)N[C@@H](CCSC)C(=O)N[C@@H](Cc4c[nH]c5ccccc45)C(=O)N[C@@H](CCCCN)C(=O)N3)NC2=O)C(=O)N[C@@H](CCCCN)C(=O)N[C@@H](CC(C)C)C(=O)N[C@@H](Cc2c[nH]c3ccccc23)C(=O)N1)[C@@H](C)CC)C(N)=O` [compound 76], the concentration for half-maximal inhibition (IC50) at hNav1.7 is 0.031 µM; on hNav1.5 it was 3.7 µM; on hNav1.4, 0.1 µM; at hNav1.3, 0.1 µM. Further, the Nav1.4/Nav1.7 at hNav1.4 came to 3.

Take `CC[C@H](C)[C@H](NC(=O)[C@@H](NC(=O)[C@H](CCCCN)NC(=O)[C@H](CCCNC(=N)N)NC(=O)[C@@H]1CSSC[C@@H]2NC(=O)[C@H](C)NC(=O)[C@H](CCCNC(=N)N)NC(=O)[C@H](CCCCN)NC(=O)[C@H](CCCCN)NC(=O)[C@H](CC(=O)O)NC(=O)[C@@H]3CSSC[C@H](NC(=O)[C@H](CCCNC(=N)N)NC(=O)[C@H](CC(C)C)NC(=O)CNC(=O)[C@H](CCC(=O)O)NC(=O)[C@H](CSSC[C@H](NC(=O)[C@@H](N)Cc4ccc(O)cc4)C(=O)N[C@@H](CCC(N)=O)C(=O)N[C@@H](CCCCN)C(=O)N[C@@H](Cc4c[nH]c5ccccc45)C(=O)N[C@@H](CCSC)C(=O)N[C@@H](Cc4c[nH]c5ccccc45)C(=O)N[C@@H]([C@@H](C)O)C(=O)N3)NC2=O)C(=O)N[C@@H](CCCCN)C(=O)N[C@@H](CC(C)C)C(=O)N[C@@H](Cc2c[nH]c3ccccc23)C(=O)N1)[C@@H](C)CC)C(N)=O` [compound 78]: the IC50 on hNav1.7 stood at 0.008 µM; on hNav1.5, 1.1 µM; on hNav1.4 it was 0.11 µM; at hNav1.3, 0.05 µM. Moreover, the Nav1.4/Nav1.7 on hNav1.4 amounted to 13.

Regarding `CC[C@H](C)[C@H](NC(=O)[C@@H](NC(=O)[C@H](CCCCN)NC(=O)[C@H](CCCNC(=N)N)NC(=O)[C@@H]1CSSC[C@@H]2NC(=O)[C@H](C)NC(=O)[C@H](CCCCN)NC(=O)[C@H](CCCCN)NC(=O)[C@H](CO)NC(=O)[C@H](CC(=O)O)NC(=O)[C@@H]3CSSC[C@H](NC(=O)[C@H](CCCNC(=N)N)NC(=O)[C@H](CC(C)C)NC(=O)CNC(=O)[C@H](CCC(=O)O)NC(=O)[C@H](CSSC[C@H](NC(=O)[C@@H](N)Cc4ccc(O)cc4)C(=O)N[C@@H](CCC(N)=O)C(=O)N[C@@H](CCCCN)C(=O)N[C@@H](Cc4c[nH]c5ccccc45)C(=O)N[C@@H](CCSC)C(=O)N[C@@H](Cc4c[nH]c5ccccc45)C(=O)N[C@@H]([C@@H](C)O)C(=O)N3)NC2=O)C(=O)N[C@@H](CCCCN)C(=O)N[C@@H](CC(C)C)C(=O)N[C@@H](Cc2c[nH]c3ccccc23)C(=O)N1)[C@@H](C)CC)C(N)=O` [compound 79], the IC50 was 0.064 µM at hNav1.7, more than 5 µM at hNav1.5, 0.47 µM at hNav1.4 and 0.12 µM at hNav1.3. Further, the Nav1.4/Nav1.7 at hNav1.4 is recorded as 7.

As to `CC[C@H](C)[C@H](NC(=O)[C@@H](NC(=O)[C@H](CCCCN)NC(=O)[C@H](CCCNC(=N)N)NC(=O)[C@@H]1CSSC[C@@H]2NC(=O)[C@H](CCCCN)NC(=O)[C@H](CCCNC(=N)N)NC(=O)[C@H](CCCCN)NC(=O)[C@H](CO)NC(=O)[C@H](CC(=O)O)NC(=O)[C@@H]3CSSC[C@H](NC(=O)[C@H](CCCNC(=N)N)NC(=O)[C@H](CC(C)C)NC(=O)CNC(=O)[C@H](CCC(=O)O)NC(=O)[C@H](CSSC[C@H](NC(=O)[C@@H](N)Cc4ccc(O)cc4)C(=O)N[C@@H](CCC(N)=O)C(=O)N[C@@H](CCCCN)C(=O)N[C@@H](Cc4c[nH]c5ccccc45)C(=O)N[C@@H](CCSC)C(=O)N[C@@H](Cc4c[nH]c5ccccc45)C(=O)N[C@@H]([C@@H](C)O)C(=O)N3)NC2=O)C(=O)N[C@@H](CCCCN)C(=O)N[C@@H](CC(C)C)C(=O)N[C@@H](Cc2c[nH]c3ccccc23)C(=O)N1)[C@@H](C)CC)C(N)=O` [compound 80], the IC50 at hNav1.7 is 0.007 µM; on hNav1.5, 1.5 µM; at hNav1.4, 0.07 µM; at hNav1.3, 0.03 µM. Besides, the Nav1.4/Nav1.7 at hNav1.4 was found to be 10.

As for `CC[C@H](C)[C@H](NC(=O)[C@@H](NC(=O)[C@H](CCCCN)NC(=O)[C@H](CCCNC(=N)N)NC(=O)[C@@H]1CSSC[C@@H]2NC(=O)[C@H](C)NC(=O)[C@H](CCCNC(=N)N)NC(=O)[C@H](CCCCN)NC(=O)[C@H](CO)NC(=O)[C@H](CC(=O)O)NC(=O)[C@@H]3CSSC[C@H](NC(=O)[C@H](CCCNC(=N)N)NC(=O)[C@H](CC(C)C)NC(=O)CNC(=O)[C@H](CCCCN)NC(=O)[C@H](CSSC[C@H](NC(=O)[C@@H](N)Cc4ccc(O)cc4)C(=O)N[C@@H](CCC(N)=O)C(=O)N[C@@H](CCCCN)C(=O)N[C@@H](Cc4c[nH]c5ccccc45)C(=O)N[C@@H](CCSC)C(=O)N[C@@H](Cc4c[nH]c5ccccc45)C(=O)N[C@@H]([C@@H](C)O)C(=O)N3)NC2=O)C(=O)N[C@@H](CCCCN)C(=O)N[C@@H](CC(C)C)C(=O)N[C@@H](Cc2c[nH]c3ccccc23)C(=O)N1)[C@@H](C)CC)C(N)=O` [compound 81], the IC50 was determined as 0.01 µM at hNav1.7, 0.89 µM at hNav1.5, 0.05 µM on hNav1.4 and 0.03 µM on hNav1.3. Also, the Nav1.4/Nav1.7 at hNav1.4 was determined as 5.

Turning to `CC[C@H](C)[C@H](NC(=O)[C@@H](NC(=O)[C@H](CCCCN)NC(=O)[C@H](CCCNC(=N)N)NC(=O)[C@@H]1CSSC[C@@H]2NC(=O)[C@H](C)NC(=O)[C@H](CCCNC(=N)N)NC(=O)[C@H](CCCCN)NC(=O)[C@H](CO)NC(=O)[C@H](CC(=O)O)NC(=O)[C@@H]3CSSC[C@H](NC(=O)[C@H](CCCCN)NC(=O)[C@H](CC(C)C)NC(=O)CNC(=O)[C@H](CCC(=O)O)NC(=O)[C@H](CSSC[C@H](NC(=O)[C@@H](N)Cc4ccc(O)cc4)C(=O)N[C@@H](CCC(N)=O)C(=O)N[C@@H](CCCCN)C(=O)N[C@@H](Cc4c[nH]c5ccccc45)C(=O)N[C@@H](CCSC)C(=O)N[C@@H](Cc4c[nH]c5ccccc45)C(=O)N[C@@H]([C@@H](C)O)C(=O)N3)NC2=O)C(=O)N[C@@H](CCCCN)C(=O)N[C@@H](CC(C)C)C(=O)N[C@@H](Cc2c[nH]c3ccccc23)C(=O)N1)[C@@H](C)CC)C(N)=O` [compound 84], the IC50 at hNav1.7 amounted to 0.02 µM; at hNav1.5 it was 3.4 µM; on hNav1.4, 0.26 µM; on hNav1.3 it was 0.06 µM. In addition, the Nav1.4/Nav1.7 at hNav1.4 was 13.

As to `CC[C@H](C)[C@H](NC(=O)[C@@H](NC(=O)[C@H](CCCCN)NC(=O)[C@H](CCCNC(=N)N)NC(=O)[C@@H]1CSSC[C@@H]2NC(=O)[C@H](C)NC(=O)[C@H](CCCNC(=N)N)NC(=O)[C@H](CCCCN)NC(=O)[C@H](CO)NC(=O)[C@H](CC(=O)O)NC(=O)[C@@H]3CSSC[C@H](NC(=O)[C@H](CCCNC(=N)N)NC(=O)[C@H](CC(C)C)NC(=O)CNC(=O)[C@H](CCC(=O)O)NC(=O)[C@H](CSSC[C@H](NC(=O)[C@@H](N)Cc4ccc(O)cc4)C(=O)N[C@@H](CCC(N)=O)C(=O)N[C@@H](CCCCN)C(=O)N[C@@H](Cc4c[nH]c5ccccc45)C(=O)N[C@@H](CCSC)C(=O)N[C@@H](Cc4c[nH]c5ccccc45)C(=O)N[C@@H]([C@@H](C)O)C(=O)N3)NC2=O)C(=O)N[C@@H](CCCCN)C(=O)N[C@@H](CCCCN)C(=O)N[C@@H](Cc2c[nH]c3ccccc23)C(=O)N1)[C@@H](C)CC)C(N)=O` [compound 85], the IC50 at hNav1.7 was determined as 0.24 µM; at hNav1.5, 4.1 µM; at hNav1.4, 0.29 µM; at hNav1.3, 0.14 µM. For the same compound, the Nav1.4/Nav1.7 on hNav1.4 came out at 1.

As to `CC[C@H](C)[C@H](NC(=O)[C@H](CCCCN)NC(=O)[C@H](CCCCN)NC(=O)[C@H](CCCNC(=N)N)NC(=O)[C@@H]1CSSC[C@@H]2NC(=O)[C@H](C)NC(=O)[C@H](CCCNC(=N)N)NC(=O)[C@H](CCCCN)NC(=O)[C@H](CO)NC(=O)[C@H](CC(=O)O)NC(=O)[C@@H]3CSSC[C@H](NC(=O)[C@H](CCCNC(=N)N)NC(=O)[C@H](CC(C)C)NC(=O)CNC(=O)[C@H](CCC(=O)O)NC(=O)[C@H](CSSC[C@H](NC(=O)[C@@H](N)Cc4ccc(O)cc4)C(=O)N[C@@H](CCC(N)=O)C(=O)N[C@@H](CCCCN)C(=O)N[C@@H](Cc4c[nH]c5ccccc45)C(=O)N[C@@H](CCSC)C(=O)N[C@@H](Cc4c[nH]c5ccccc45)C(=O)N[C@@H]([C@@H](C)O)C(=O)N3)NC2=O)C(=O)N[C@@H](CCCCN)C(=O)N[C@@H](CC(C)C)C(=O)N[C@@H](Cc2c[nH]c3ccccc23)C(=O)N1)C(N)=O` [compound 88], the IC50 at hNav1.7 turned out to be 0.014 µM; on hNav1.5, 1.5 µM; on hNav1.4, 0.11 µM; at hNav1.3, 0.05 µM. For the same compound, the Nav1.4/Nav1.7 on hNav1.4 stood at 8.

For orientation: IC50 means the midpoint of a concentration-inhibition curve.
